Laboratory results reported in patent publication US20200338084A1, “INHIBITORS OF LOW MOLECULAR WEIGHT PROTEIN TYROSINE PHOSPHATASE (LMPTP) AND USES THEREOF” (Sanford Burnham Prebys Medical Discovery Institute, priority 2018, published 2020).

These compounds were tested against T1, human LMPTP-A (Homo sapiens, UniProt P24666) (assay: Enzyme Assay of Inhibition of LMPTP-A). Details: phosphatase assay, OMFP or pNPP substrate, 50 mM Bis-Tris pH 6.0, 37° C.
T1 sequence (P24666 1-158): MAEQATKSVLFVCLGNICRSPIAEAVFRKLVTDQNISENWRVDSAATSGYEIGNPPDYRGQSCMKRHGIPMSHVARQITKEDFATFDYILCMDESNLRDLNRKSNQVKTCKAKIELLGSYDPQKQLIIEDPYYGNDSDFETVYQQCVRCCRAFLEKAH
Format: biochemical
Procedure: Phosphatase assays were performed in buffer containing 50 mM Bis-Tris, pH 6.0, 1 mM DTT and 0.01% Triton X-100 at 37° C. For assays conducted with 3-O-methylfluorescein phosphate (OMFP) as substrate, fluorescence was monitored continuously at λex=485 and λem=525 nm. For assays conducted with para-nitrophenylphosphate (pNPP) as substrate, the reaction was stopped by addition of 2× reaction volume of 1 M NaOH, and absorbance was measured at 405 nm. IC50 values of compounds disclosed herein were determined from plots of inhibitor concentration versus percentage of enzyme activity. For inhibitor selectivity assays, each PTP was incubated with either 0.4 mM OMFP or 5 mM pNPP in the presence of 40 μM compound or DMSO. […] For the inhibitor reversibility assay, 50 nM human LMPTP-A was pre-incubated with 10 μM of compound disclosed herein or DMSO for 5 min. The enzyme was diluted 100× in phosphatase assay buffer containing 0.4 mM OMFP and fluorescence was measured at the indicated time points.
`Nc1ncn(Cc2nnn[nH]2)c2ncnc1-2` [3-((1H-tetrazol-5-yl)methyl)-3H-purin-6-amine] gave an IC50 of no less than 20000 nM. Compound `Cc1noc(C)c1Cn1cnc(N)c2ncnc1-2` [3-((3,5-dimethylisoxazol-4-yl)methyl)-3H-purin-6-amine] has an IC50 of 1000 to 20000 nM. With `CN(C)C(=O)c1cccc(Nc2ncn(Cc3c(Cl)cccc3Cl)c3ncnc2-3)c1` [3-((3-(2,6-dichlorobenzyl)-3H-purin-6-yl)amino)-N,N-dimethylbenzamide] the IC50 was 1000 to 20000 nM. Work on `Nc1ncn(Cc2ccc(Cl)s2)c2ncnc1-2` [3-((5-chlorothiophen-2-yl)methyl)-3H-purin-6-amine] yielded an IC50 of 1000 to 20000 nM. `N#Cc1cccc(Cn2cnc(N)c3ncnc2-3)c1` [3-((6-amino-3H-purin-3-yl)methyl)benzonitrile] showed an IC50 of 1000 to 20000 nM. Compound `Nc1ncn(Cc2nc3ccccc3s2)c2ncnc1-2` [3-(benzo[d]thiazol-2-ylmethyl)-3H-purin-6-amine] has an IC50 of 1000 to 20000 nM. In the case of `Nc1ncn(Cc2ccc3ccccc3n2)c2ncnc1-2` [3-(quinolin-2-ylmethyl)-3H-purin-6-amine], the IC50 is reported as 1000 to 20000 nM. For `N#Cc1cccc(Nc2ncn(Cc3c(Cl)cccc3Cl)c3ncnc2-3)c1` [3-({3-[(2,6-Dichlorophenyl)methyl]-3-hydropurin-6-yl}amino)benzenecarbonitrile], the IC50 was no less than 20000 nM. `O=C(O)c1cccc(Nc2ncn(Cc3c(Cl)cccc3Cl)c3ncnc2-3)c1` [3-({3-[(2,6-Dichlorophenyl)methyl]-3-hydropurin-6-yl}amino)benzoic acid] gave an IC50 of 1000 to 20000 nM. `Oc1cccc(Nc2ncn(Cc3c(Cl)cccc3Cl)c3ncnc2-3)c1` [3-({3-[(2,6-Dichlorophenyl)methyl]-3-hydropurin-6-yl}amino)phenol] was tested, and the IC50 was 1000 to 20000 nM. `Nc1ncn(Cc2c(Cl)cccc2Cl)c2ncnc1-2` [3-<2,6-Dichloro-benzyl)-3H-purin-6-ylamine] showed an IC50 of no more than 1000 nM. In the case of `Nc1ncn(Cc2ccccn2)c2ncnc1-2` [3-Pyridin-2-ylmethyl-3H-purin-6-ylamine], the IC50 is reported as 1000 to 20000 nM. `Nc1ncn(Cc2cccnc2)c2ncnc1-2` [3-Pyridin-3-ylmethyl-3H-purin-6-ylamine] showed an IC50 of 1000 to 20000 nM. `Nc1ncn(Cc2ccncc2)c2ncnc1-2` [3-Pyridin-4-ylmethyl-3H-purin-6-ylamine] was tested, and the IC50 was 1000 to 20000 nM. Compound `Nc1ncn(Cc2cscn2)c2ncnc1-2` [3-Thiazol-4-ylmethyl-3H-purin-6-ylaniine] has an IC50 of no less than 20000 nM. In the case of `Nc1ncn(Cc2ccsc2)c2ncnc1-2` [3-Thiophen-3-ylmethyl-3H-purin-6-ylamine], the IC50 is reported as no less than 20000 nM. `Nc1ncn(Cc2c(Cl)ccnc2Cl)c2ncnc1-2` [3-[(2,4-dichloro-3-pyridyl)methyl]-3-hydropurine-6-ylamine] was tested, and the IC50 was no more than 1000 nM. `Nc1ncn(Cc2c(Cl)cccc2Cl)c2nc(-c3cncs3)nc1-2` [3-[(2,6-Dichlorophenyl)methyl]-8-(1,3-thiazol-5-yl)-3-hydropurine-6-ylamine] gave an IC50 of no more than 1000 nM. With `CN1CCC(c2nc3c(N)ncn(Cc4c(Cl)cccc4Cl)c-3n2)CC1` [3-[(2,6-Dichlorophenyl)methyl]-8-(1-methyl(4-piperidyl))-3-hydropurine-6-ylamine] the IC50 was no more than 1000 nM. In the case of `Cn1cc(-c2nc3c(N)ncn(Cc4c(Cl)cccc4Cl)c-3n2)cn1` [3-[(2,6-Dichlorophenyl)methyl]-8-(1-methylpyrazol-4-yl)-3-hydropurine-6-ylamine], the IC50 is reported as no more than 1000 nM. For `Cn1nccc1-c1nc2c(N)ncn(Cc3c(Cl)cccc3Cl)c-2n1` [3-[(2,6-Dichlorophenyl)methyl]-8-(1-methylpyrazol-5-yl)-3-hydropurine-6-ylamine], the IC50 was no more than 1000 nM. `Nc1ncn(Cc2c(Cl)cccc2Cl)c2nc(-c3ccccc3Cl)nc1-2` [3-[(2,6-Dichlorophenyl)methyl]-8-(2-chlorophenyl)-3-hydropurine-6-ylamine] was tested, and the IC50 was no more than 1000 nM. In the case of `Nc1ncn(Cc2c(Cl)cccc2Cl)c2nc(-c3ccccc3F)nc1-2` [3-[(2,6-Dichlorophenyl)methyl]-8-(2-fluorophenyl)-3-hydropurine-6-ylamine], the IC50 is reported as no more than 1000 nM. Work on `Nc1ncn(Cc2c(Cl)cccc2Cl)c2nc(-c3ccco3)nc1-2` [3-[(2,6-Dichlorophenyl)methyl]-8-(2-furyl)-3-hydropurine-6-ylamine] yielded an IC50 of no more than 1000 nM.
